Reference: publication PMC6356585 (Viruses, 2018)
Structures can show the parent of a compound that is named as a salt. Where two headings read alike, the source gives them in different places.

What was measured:
ZIKV SPH [1] = assay: Autophagy compound library screen, ZIKV SPH titer (TCID50) in C6/36 cells; type: cell-based, Zika virus; conditions: for activity at 10 µM: Zika virus, read-out: ZIKV SPH Relative Titer in C6/36 Cells
Vero cells = assay: Cell viability (CellTiter-Glo) of Vero cells; type: cell-based
ZIKV SPH [2] = assay: Autophagy compound library screen, ZIKV SPH titer (TCID50) in Vero cells; type: cell-based, Zika virus; conditions: for activity at 10 µM: Zika virus, Vero, read-out: ZIKV SPH Relative Titer in Vero Cells
C6/36 cells = type: cell-based, Ae. albopictus
[3] = 10 µM compound, MOI 0.1, 96 h, TCID50, ± SEM, three independent trials
[4] = 10 µM compound, MOI 0.1, 40 h, TCID50, ± SEM, three independent trials
[5] = 10 µM compound, 96 h, CellTiter-Glo, ± SEM, three independent trials
[6] = C6/36, 10 µM compound, MOI 0.1, 96 h, TCID50, ± SEM, three independent trials
[7] = 10 µM compound, 40 h, CellTiter-Glo, ± SEM, three independent trials

| Compound | ZIKV SPH Relative Titer in C6/36 Cells (ZIKV SPH [1]; [3]) | Vero Viability (Vero cells; 10 µM) | ZIKV SPH Relative Titer in Vero Cells (ZIKV SPH [2]; [4]) | C6/36 Viability (C6/36 cells; [5]) | activity at 10 µM (ZIKV SPH [1]; [6]) [%] | Vero Viability (Vero cells; [7]) | activity at 10 µM (ZIKV SPH [2]; [4]) [%] | C6/36 Viability (C6/36 cells; 10 µM) | activity at 10 µM (ZIKV SPH [1]; C6/36, 96 h) [%] | activity at 10 µM (ZIKV SPH [2]; 40 h) [%] |
| --- | --- | --- | --- | --- | --- | --- | --- | --- | --- | --- |
| CCCC(=O)Nc1ncnc2c1ncn2[C@@H]1O[C@@H]2COP(=O)([O-])O[C@H]2[C@H]1OC(=O)CCC.[Na+] [Dibutyryl cAMP·Na] | 142.6 ± 63.9% of untreated control | 98.3 ± 4.4% of untreated control | 60.6 ± 36.7% of untreated control | 117 ± 10.7% of untreated control | – | – | – | – | – | – |
| C[C@H](CCC(=O)[O-])[C@H]1CC[C@H]2[C@@H]3CC[C@@H]4C[C@H](O)CC[C@]4(C)[C@H]3C[C@H](O)[C@]12C.[Na+] [Deoxycholate·Na] | 90.6 ± 12.5% of untreated control | 95.3 ± 2.6% of untreated control | 76.6 ± 16.6% of untreated control | 83 ± 1% of untreated control | – | – | – | – | – | – |
| Cl.O=C(NCc1ccncc1)C12CC3C[C@H](C1)CC(c1ccc(Cl)cc1)(C3)C2 [ABC294640·HCl] | 26.0 ± 10.8% of untreated control | 87.7 ± 6.8% of untreated control | 51.7 ± 29.2% of untreated control | 32 ± 3.5% of untreated control | – | – | – | – | – | – |
| C[C@H](CCC(=O)O)C[C@H](C)C[C@H](C)C(=O)/C=C(\O)[C@H](C)C[C@H](C)C/C=C/[C@@H](C)[C@@H](O)[C@@H](C)[C@@H](O)C[C@@H]1CC[C@@](C)([C@H]2CC[C@@](C)([C@@H](C)O)O2)O1 [Ionomycin] | – | – | – | 1 ± 0.3% of untreated control | 0 | 27.7 ± 10.4% of untreated control | 0 | – | – | – |
| COC(=O)Nc1nc2ccc(C(=O)c3cccs3)cc2[nH]1 [Nocodazole] | – | 56.0 ± 9.6% of untreated control | – | – | 182 ± 39.5 | – | 28.4 ± 23.9 | 58 ± 2.9% of untreated control | – | – |
| OC[C@H]1O[C@H](O[C@H]2O[C@H](CO)[C@@H](O)[C@H](O)[C@H]2O)[C@H](O)[C@@H](O)[C@@H]1O [Trehalose] | not able to reduce ZIKV titers | 97.7 ± 1.5% of untreated control | not able to reduce ZIKV titers | – | 246 ± 101 | – | – | 99 ± 2.9% of untreated control | – | – |
| N#CC(C#N)=C(N)/C(C#N)=C/c1ccc(O)cc1 [AG112] | 85.5 ± 21.3% of untreated control | – | 77.7 ± 38.2% of untreated control | 80 ± 5.8% of untreated control | – | 96.7 ± 3.7% of untreated control | – | – | – | – |
| CN(C)CCCn1cc(C2=C(c3c[nH]c4ccccc34)C(=O)NC2=O)c2ccccc21 [Go6850] | 1.4 ± 1.4% of untreated control | – | 1.3 ± 0.9% of untreated control | 21 ± 0% of untreated control | – | 36.0 ± 9% of untreated control | – | – | – | – |
| O=C(CC(=O)C(F)(F)F)c1cccs1 [TTFA] | 72.8 ± 9.6% of untreated control | – | 24.4 ± 7.6% of untreated control | 78 ± 19.9% of untreated control | – | 90.0 ± 3.5% of untreated control | – | – | – | – |
| COc1cc(CNC(=O)CCCCCCC(C)C)ccc1O [Dihydrocapsaicin] | – | 92.3 ± 3.8% of untreated control | – | – | 64.1 ± 16 | – | 28.7 ± 10.5 | 61 ± 2.2% of untreated control | – | – |
| NS(=O)(=O)C#Cc1ccccc1 [Pifithrin-µ] | 75.3 ± 27.5% of untreated control | 49.0 ± 15% of untreated control | 38.5 ± 12.4% of untreated control | 72 ± 3.2% of untreated control | – | – | – | – | – | – |
| CC(Oc1ccc(O)cc1)(P(=O)(O)O)P(=O)(O)O [L-690,330] | 66.8 ± 2.6% of untreated control | – | 40.7 ± 10.6% of untreated control | 87 ± 4.6% of untreated control | – | 93.7 ± 3.5% of untreated control | – | – | – | – |
| COc1ccc(C[C@H]2NC[C@H](O)[C@H]2OC(C)=O)cc1 [Anisomycin] | 0.0 ± 0% of untreated control | – | 0.0 ± 0% of untreated control | 7 ± 0.9% of untreated control | – | 12.7 ± 4.3% of untreated control | – | – | – | – |
| [Cl-].[Li+] [Lithium Chloride] | 167.9 ± 68.4% of untreated control | – | 85.4 ± 18.7% of untreated control | 111 ± 10.7% of untreated control | – | 87.0 ± 1% of untreated control | – | – | – | – |
| C=CCNC1=C2C[C@@H](C)C[C@H](OC)[C@H](O)[C@@H](C)/C=C(\C)[C@H](OC(N)=O)[C@@H](OC)/C=C\C=C(/C)C(=O)NC(=CC1=O)C2=O [Compound 17-AAG, 17-AAG] | 18.2 ± 11.2% of untreated control | – | 36.4 ± 20.8% of untreated control | 79 ± 16.4% of untreated control | – | – | – | – | – | – |
| O=S(=O)(F)Cc1ccccc1 [PMSF] | 258.0 ± 145.2% of untreated control | – | 89.0 ± 7% of untreated control | 81 ± 6.4% of untreated control | – | 98.3 ± 2% of untreated control | – | – | – | – |

| Compound | ZIKV SPH Relative Titer in C6/36 Cells (ZIKV SPH [1]; [3]) | Vero Viability (Vero cells; 10 µM) | ZIKV SPH Relative Titer in Vero Cells (ZIKV SPH [2]; [4]) | C6/36 Viability (C6/36 cells; [5]) | activity at 10 µM (ZIKV SPH [1]; [6]) [%] | Vero Viability (Vero cells; [7]) | activity at 10 µM (ZIKV SPH [2]; [4]) [%] | C6/36 Viability (C6/36 cells; 10 µM) | activity at 10 µM (ZIKV SPH [1]; C6/36, 96 h) [%] | activity at 10 µM (ZIKV SPH [2]; 40 h) [%] |
| --- | --- | --- | --- | --- | --- | --- | --- | --- | --- | --- |
| Tunicamycin | 1.8 ± 0.8% of untreated control | – | 0.5 ± 0.5% of untreated control | 47 ± 7.6% of untreated control | – | 56.3 ± 8.7% of untreated control | – | – | – | – |
| COc1cc([C@@H]2c3cc4c(cc3[C@@H](O[C@@H]3O[C@@H]5CO[C@@H](C)O[C@H]5[C@H](O)[C@H]3O)[C@H]3COC(=O)[C@H]23)OCO4)cc(OC)c1O [Etoposide] | – | 84.0 ± 3.6% of untreated control | – | 119 ± 12.5% of untreated control | 737 ± 89.3 | – | 134 ± 34.3 | – | – | – |
| COC(=O)C1=C(C)NC(C)=C(C(=O)OCCCN2CCC(c3ccccc3)(c3ccccc3)CC2)[C@H]1c1cccc([N+](=O)[O-])c1 [Niguldipine] | – | 30.0 ± 14.2% of untreated control | – | – | – | – | – | 5 ± 2.1% of untreated control | 0 | 0.2 ± 0.1 |
| CN(C)C(=O)C(CCN1CCC(O)(c2ccc(Cl)cc2)CC1)(c1ccccc1)c1ccccc1 [Loperamide HCl] | – | – | – | 12 ± 6.1% of untreated control | 0.1 ± 0.1 | 66.7 ± 17.4% of untreated control | 11.7 ± 3.3 | – | – | – |
| O=C1NCN(c2ccccc2)C12CCN(CCCC(c1ccc(F)cc1)c1ccc(F)cc1)CC2 [Fluspirilene] | – | 56.7 ± 16% of untreated control | – | 26 ± 10.3% of untreated control | 1 ± 0.7 | – | 2.5 ± 0.6 | – | – | – |
| CNCCCN1c2ccccc2CCc2ccc(Cl)cc21.Cl [Norclomipramine HCl] | 13.4 ± 8.7% of untreated control | – | 3.9 ± 0.5% of untreated control | 19 ± 8.9% of untreated control | – | 48.7 ± 22.9% of untreated control | – | – | – | – |
| Cc1cccc(Nc2nc(-c3ccncc3)cs2)c1 [STF-62247] | 169.8 ± 45.9% of untreated control | – | 45.0 ± 21.4% of untreated control | 49 ± 9.3% of untreated control | – | 77.3 ± 11.7% of untreated control | – | – | – | – |
| Penitrem A | 29.8 ± 6.4% of untreated control | – | 34.9 ± 10.4% of untreated control | – | – | – | – | – | – | – |
| Nc1cc(N2CCCCC2)nc(N)[n+]1[O-] [Minoxidil] | – | 96.3 ± 3.2% of untreated control | – | 72 ± 2.6% of untreated control | 146 ± 16.6 | – | – | – | – | – |
| COC1=C2C[C@@H](C)C[C@H](OC)[C@H](O)[C@@H](C)/C=C(\C)[C@H](OC(N)=O)[C@@H](OC)/C=C\C=C(/C)C(=O)NC(=CC1=O)C2=O [Geldanamycin] | – | 61.3 ± 5.7% of untreated control | – | 45 ± 5.8% of untreated control | 25.8 ± 14.5 | – | – | – | – | – |
| Cn1cnc(N)c2ncnc1-2 [3-Methyladenine] | – | 90.7 ± 1.8% of untreated control | – | 120 ± 15.6% of untreated control | 155 ± 41 | – | – | – | – | – |
| CN[C@@H]1C[C@H]2O[C@@](C)([C@@H]1OC)n1c3ccccc3c3c4c(c5c6ccccc6n2c5c31)C(=O)NC4 [Staurosporine] | – | – | – | 16 ± 5.3% of untreated control | 0 | 14.0 ± 1.5% of untreated control | – | – | – | – |
| C=C[C@@]1(C)CC(=O)[C@]2(O)[C@@]3(C)[C@@H](O)CCC(C)(C)[C@@H]3[C@H](O)[C@H](OC(C)=O)[C@@]2(C)O1 [Forskolin] | – | 74.7 ± 3.7% of untreated control | – | – | 302 ± 18.3 | – | – | 94 ± 12% of untreated control | – | – |
| Cn1nnc2c(C(N)=O)ncn2c1=O [Temozolomide] | – | 104.7 ± 1.9% of untreated control | – | – | 219 ± 49.8 | – | – | 113 ± 9.2% of untreated control | – | – |
| CCCCC[C@H](O)CC(=O)CCc1ccc(O)c(OC)c1 [Compound 6-Gingerol, 6-Gingerol] | – | 100.0 ± 2.5% of untreated control | – | 55 ± 11% of untreated control | 109 ± 9.3 | – | – | – | – | – |
